# Patent US20240383908A1, “SYNTHESIS AND APPLICATION OF PHOSPHATASE DEGRADER” (HINOVA PHARMACEUTICALS INC., priority 2021, published 2024)
# Tested on: KYSE 520
# Experiment: Inhibition of cell proliferation, KYSE 520 (CCK-8)
# Assay type: cell-based
# Settings: Homo sapiens, KYSE 520 cells, read-out: Inhibition activity on the proliferation of different cell lines KYSE 520 (IC50)
# Experimental: (1) MV-411 cells were cultured in the cell culture medium, and then well-growing cells were selected and inoculated in a 96-well plate at 80 μL/well, with 2×10^4 cells/well. The plate was incubated overnight in a 5% CO2 cell incubator at 37° C.
# (2) 10 mM storage solution of each drug was prepared using dimethylsulfoxide (DMSO). The stock solution was diluted in a ratio of 1:3 with DMSO before use, and then the solution was serially diluted in a ratio of 1:3, to obtain 9 gradient concentrations. Each concentration was further diluted with the medium in a ratio of 1:200 (to ensure that the DMSO concentration in the culture system was 0.1%). Two wells were set for each concentration. 20 μL of each compound solution was added to the cell culture well (with a final concentration of 10 μM, 3.3 μM, 1.1 μM . . . ). The plate was gently shaken and mixed. Additionally, 3 negative control wells (only containing cells) and 3 blank control wells (only containing the medium) were included (6 wells were each added with 20 μL of DMSO diluted with the medium in a ratio of 1:200).
# (1) After 5 days of cultivation, 10 μL of CCK-8 was added to each well, and then the plate was further cultured for 3 h at 37° C. in a 5% CO2 cell incubator.
# (2) The absorbance (OD value) was measured at 450 nm with a multifunctional microplate reader. (3) The data were analyzed using the Dose-response-inhibition equation in GraphPad Prism8 software to obtain the IC50 value.
# Using a similar method, the IC50 value (nM) for the inhibitory activity of the compound according to the present invention against different cell lines was obtained, and the results are shown in Table 3 (++++: IC50>5 μM; +++: 1 μM<IC50<5 μM; ++: IC50<1 μM).
smiles,measurement,value
Cc1ncsc1-c1ccc([C@H](C)NC(=O)[C@@H]2C[C@@H](O)CN2C(=O)[C@@H](NC(=O)CCCCCCCCN2CCN(C(=O)CCC(=O)Nc3cccc(Sc4ncc(N5CCC(C)(N)CC5)nc4N)c3Cl)CC2)C(C)(C)C)cc1 [Compound 999],IC50,1 to 5 µM
